According to the supplement of paper PMC10307832:

Legend:
Test in all cases: relative viability (nuclei count vs DMSO), 5 days (fraction); higher = more cells survive
IMD-0354 + AZD7762 = compound: O=C(Nc1cc(C(F)(F)F)cc(C(F)(F)F)c1)c1cc(Cl)ccc1O [IMD-0354] + NC(=O)Nc1cc(-c2cccc(F)c2)sc1C(=O)N[C@H]1CCCNC1 [AZD7762] (partner 0.2 µM)
Method in brief: (§1)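 For relative viability, nuclei counts in treated wells were divided by those in vehicle wells. Lung cancer cell lines had been pin-tool dosed in 1536-well plates the day after seeding and cultured for 5 days, then fixed and stained in one step (final 0.05% Triton X-100, 1% formaldehyde, 1 ug/ml Hoechst) and imaged at 4×. Doses were one drug alone or a fixed anchor-drug dose plus five library-drug doses (not always all listed) in √10 steps, and values are duplicate-plate medians.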

CX-5461 + Crizotinib = compound: Cc1cnc(CNC(=O)c2c(=O)c3ccc(N4CCCN(C)CC4)nc3n3c2sc2ccccc23)cn1 [CX-5461] + C[C@@H](Oc1cc(-c2cnn(C3CCNCC3)c2)cnc1N)c1c(Cl)ccc(F)c1Cl [Crizotinib] (partner 1 µM)
Method in brief: as §1

CX-5461 + Bortezomib = compound: Cc1cnc(CNC(=O)c2c(=O)c3ccc(N4CCCN(C)CC4)nc3n3c2sc2ccccc23)cn1 [CX-5461] + CC(C)C[C@H](NC(=O)[C@H](Cc1ccccc1)NC(=O)c1cnccn1)B(O)O [Bortezomib] (partner 0.002 µM)
Method in brief: as §1

IMD-0354 + Bortezomib = compound: O=C(Nc1cc(C(F)(F)F)cc(C(F)(F)F)c1)c1cc(Cl)ccc1O [IMD-0354] + CC(C)C[C@H](NC(=O)[C@H](Cc1ccccc1)NC(=O)c1cnccn1)B(O)O [Bortezomib] (partner 0.002 µM)
Method in brief: as §1

Row | Cell Line | relative viability (IMD-0354 + AZD7762; first compound 0.04 µM) | relative viability (IMD-0354 + AZD7762; first compound 0.1265 µM) | relative viability (IMD-0354 + AZD7762; first compound 0.4 µM) | relative viability (IMD-0354 + AZD7762; first compound 1.265 µM) | relative viability (IMD-0354 + AZD7762; first compound 4 µM) | relative viability (CX-5461 + Crizotinib; first compound 0.03162 µM) | relative viability (CX-5461 + Crizotinib; first compound 0.1 µM) | relative viability (CX-5461 + Crizotinib; first compound 1 µM) | relative viability (CX-5461 + Bortezomib; first compound 0.03162 µM) | relative viability (CX-5461 + Bortezomib; first compound 0.1 µM) | relative viability (CX-5461 + Bortezomib; first compound 0.3162 µM) | relative viability (CX-5461 + Bortezomib; first compound 1 µM) | relative viability (CX-5461 + Crizotinib; first compound 0.01 µM) | relative viability (CX-5461 + Crizotinib; first compound 0.3162 µM) | relative viability (IMD-0354 + Bortezomib; first compound 0.04 µM) | relative viability (IMD-0354 + Bortezomib; first compound 0.1265 µM) | relative viability (IMD-0354 + Bortezomib; first compound 0.4 µM) | relative viability (IMD-0354 + Bortezomib; first compound 1.265 µM) | relative viability (IMD-0354 + Bortezomib; first compound 4 µM) | relative viability (CX-5461 + Bortezomib; first compound 0.01 µM)
1 | NCI-H2342 | 0.539 | 0.509 | 0.469 | 0.31 | 0.385 | – | – | – | – | – | – | – | – | – | – | – | – | – | – | –
2 | LK-2 | 0.251 | 0.39 | – | 0.105 | 0.172 | 0.188 | 0.214 | 0.239 | – | – | – | – | – | – | – | – | – | – | – | –
3 | SK-LU-1 | – | – | – | – | – | 1.01 | 0.837 | 0.51 | 1.15 | 1.05 | 0.518 | 0.761 | 0.95 | 0.891 | 1.17 | 1.1 | 0.645 | 0.418 | 0.304 | –
4 | HCC-366 | 0.277 | 0.361 | 0.148 | 0.0408 | 0.048 | 0.82 | 0.573 | 0.48 | 1.18 | 1.06 | 1.04 | 0.114 | 0.693 | 0.252 | 1.2 | 0.885 | 0.281 | 0.099 | 0.0336 | 1.08
5 | 201T | 0.511 | 0.616 | 0.392 | 0.657 | 0.214 | 1.02 | 1.02 | 1.01 | 1.15 | 1.08 | 1.14 | 1.05 | 1.07 | 1.03 | 1.12 | 1.1 | 0.928 | 0.924 | 0.361 | 1.16
6 | HCC-827 | 0.204 | 0.239 | 0.215 | 0.183 | 0.153 | 0.877 | 0.905 | 0.846 | 1.06 | 1.02 | 1.06 | 0.997 | 0.876 | 0.866 | 1.03 | 1.07 | 0.825 | 0.462 | 0.347 | 1.01
7 | NCI-H647 | 0.707 | 0.531 | 0.309 | 0.0742 | 0.159 | 1.18 | 1.05 | 0.401 | 0.991 | 0.95 | 0.935 | 0.168 | 1.02 | 1.06 | 1.15 | 1.08 | 0.439 | 0.169 | 0.128 | 1.16
8 | NCI-H2023 | – | – | – | – | – | 0.558 | – | 0.0858 | 0.825 | – | 0.52 | 0.0872 | 0.584 | 0.391 | 1.02 | 0.97 | 0.843 | 0.114 | 0.081 | 1.04
9 | NCI-H520 | – | – | – | – | – | 0.925 | 0.777 | 0.531 | 0.527 | 0.627 | 0.257 | 0.315 | 0.736 | 0.336 | 0.681 | 0.579 | 0.389 | 0.186 | 0.208 | 0.612
10 | RERF-LC-KJ | 1.1 | 1 | – | 0.327 | 0.184 | 0.562 | 0.833 | 0.778 | 1.1 | 1.15 | 1.09 | 1.01 | 0.807 | 0.774 | 1.15 | 1.17 | 0.875 | 0.489 | 0.254 | 1.11
11 | A-427 | 1.01 | 0.827 | 0.585 | 0.14 | 0.202 | 1.08 | 1 | 0.888 | 1.04 | 0.98 | – | 0.912 | 1.04 | – | 1.14 | 1.07 | 0.543 | 0.369 | 0.109 | 0.999
